Earlier results, collected in US20050163873A1, “Methods and formulations for treating glaucoma” (priority 2004, published 2005).

Columns and labels:
[1] = tested on: tumor necrosis factor-alpha (TNF-α) and nitric oxide (NO)
HIV-1 enzyme integrase = HIV-1 enzyme integrase (Human immunodeficiency virus type 1 group M subtype B, UniProt P04585)
[2] = tested on: primary cultures of cerebellar neurons
retina = settings: guinea pig, in vivo
diabetic rats [3] = tested on: diabetic rats
[4] = tested on: human Tenon's capsule fibroblast; settings: human Tenon's capsule fibroblasts
rabbits [5] = tested on: rabbits
hippocampal CA1 neurons = settings: central infusion after forebrain ischemia, gerbil
[6] = tested on: cultured retinal ganglion cells
[7] = tested on: cultured neurons from embryonic mouse cortex and striatum
[8] = tested on: nitric oxide and tumor necrosis factor alpha
rabbits [9] = tested on: rabbits; remark: listed apart in the source
diabetic rats [10] = tested on: diabetic rats; remark: listed apart in the source
[11] = tested on: goldfish retinal explants; settings: post-crush goldfish retinal explants, in the presence of fetal calf serum
[12] = tested on: cultured neuronal cells and astrocytes; settings: pretreatment of cultured neuronal cells and astrocytes
[13] = folic acid 400 μg associated with vitamin B6 and B12
[14] = tested on: inducible nitric oxide synthase (iNOS)
heme oxygenase 1 = settings: neuronal cell cultures

## COc1cc(C[C@H]2C(=O)OC[C@@H]2Cc2ccc(OC)c(OC)c2)ccc1O [Arctigenin]
[1]
  tumor necrosis factor-alpha (TNF-α) and nitric oxide (NO) production: inhibit
Cultured neurons
  glutamate toxicity: protect
HIV-1 enzyme integrase
  HIV-1 enzyme integrase inhibition: inhibit
DNA topoisomerase II
  DNA topoisomerase II inhibition: inhibitor

## C[N+](C)(C)CC(O)CC(=O)[O-] (stereo not shown) [Carnitine]
[2]
  glutamate neurotoxicity: prevents
retina
  retinal injury following ischemia-reperfusion injury: prevent

## Cc1c(C)c2c(c(C)c1O)CC[C@@](C)(CCC[C@H](C)CCC[C@H](C)CCCC(C)C)O2 [D-alpha-tocopherol]
Diabetic rats [3]
  amount of leukostasis: prevented the increases in leukostasis
  retinal blood flow: prevented
[4]
  fibroblast proliferation: inhibit
Rabbits [5]
  results of filtering surgery: improve the results

## CC(C)=CCC[C@](C)(O[C@@H]1O[C@H](CO[C@@H]2O[C@H](CO)[C@@H](O)[C@H](O)[C@H]2O)[C@@H](O)[C@H](O)[C@H]1O)[C@H]1CC[C@]2(C)[C@@H]1[C@H](O)C[C@@H]1[C@@]3(C)CC[C@H](O[C@@H]4O[C@H](CO)[C@@H](O)[C@H](O)[C@H]4O[C@@H]4O[C@H](CO)[C@@H](O)[C@H](O)[C@H]4O)C(C)(C)[C@@H]3CC[C@]12C [Ginsenoside Rb1, ginsenoside Rb1]
Cultured cortical cells
  neuroprotective effects on cultured cortical cells: significant neuroprotective effects
Hippocampal CA1 neurons
  protection of hippocampal CA1 neurons against lethal ischemic damage: protects

## CC(C)=CCC[C@](C)(O)[C@H]1CC[C@]2(C)[C@@H]1[C@H](O)C[C@@H]1[C@@]3(C)CC[C@H](O[C@@H]4O[C@H](CO)[C@@H](O)[C@H](O)[C@H]4O[C@@H]4O[C@H](CO)[C@@H](O)[C@H](O)[C@H]4O)C(C)(C)[C@@H]3CC[C@]12C [Ginsenoside Rg3]
Cultured cortical cells
  neuroprotective effects on cultured cortical cells: significant neuroprotective effects

## C/C1=C2/[N-][C@H]([C@H](CC(N)=O)[C@@]2(C)CCC(=O)NC[C@@H](C)OP(=O)([O-])O[C@H]2[C@@H](O)[C@@H](n3cnc4cc(C)c(C)cc43)O[C@@H]2CO)[C@]2(C)N=C(/C(C)=C3N=C(/C=C4N=C1[C@@H](CCC(N)=O)C\4(C)C)[C@@H](CCC(N)=O)[C@]\3(C)CC(N)=O)[C@@H](CCC(N)=O)[C@]2(C)CC(N)=O.[CH3-].[Co+3] [Methylcobalamin]
[6]
  glutamate-induced neurotoxicity: protects

## CC(=O)N[C@@H](CS)C(=O)O [N-acetyl-L-cysteine]
[7]
  neuronal cell survival rate: increased

## O=c1c(O)c(-c2ccc(O)c(O)c2)oc2cc(O)cc(O)c12 [Quercetin]
[8]
  release of nitric oxide and tumor necrosis factor alpha: inhibits
Cortical cell cultures
  oxidative injury: neuroprotective
rats
  progression of selenite-induced cataract: slow the progression

## C=CCSSC[C@H](N)C(=O)O [S-Allylmercaptocysteine]
Rabbits [9]
  IOP: lower IOP

## NCCS(=O)(=O)O [Taurine]
Diabetic rats [10]
  ATPase activity: preserves
  lipid peroxidation: significantly decreases
[11]
  neuritic outgrowth: increased length and density of neurites

## O=C(O)CCCCC1CCSS1 (stereo not drawn) [alpha-lipoic acid, Alpha-lipoic acid]
Diabetic rats [3]
  amount of leukostasis: normalized

## C[N+](C)(C)CCOP(=O)(O)OP(=O)([O-])OC[C@H]1O[C@@H](n2ccc(N)nc2=O)[C@H](O)[C@@H]1O [citicoline, Citicoline]
Patients with glaucoma
  visual evoked potential and pattern electroretinography (ERG) parameters: significant (P<0.01) improvement

## COC1=C(OC)C(=O)C(C/C=C(\C)CC/C=C(\C)CC/C=C(\C)CC/C=C(\C)CC/C=C(\C)CC/C=C(\C)CC/C=C(\C)CC/C=C(\C)CC/C=C(\C)CCC=C(C)C)=C(C)C1=O [coenzyme Q10]
[12]
  cell death due to glutamate neurotoxicity: inhibited cell death

## Nc1nc2ncc(CNc3ccc(C(=O)N[C@@H](CCC(=O)O)C(=O)O)cc3)nc2c(=O)[nH]1 [folic acid]
[13]
  reduction of homocysteine levels: 30%

## N[C@H]1C(O)O[C@H](CO)[C@@H](O)[C@@H]1O (stereo partly shown) [glucosamine]
[14]
  inducible nitric oxide synthase (iNOS) inhibition: inhibits

## Oc1ccc(C=Cc2cc(O)cc(O)c2)cc1 [resveratrol, Resveratrol]
Heme oxygenase 1
  heme oxygenase 1: induces
